Source: patent US9029337B2, “Modulation of factor 7 expression” (Isis Pharmaceuticals, Inc., priority 2007, dated 2015)
Strand notation (5' to 3'): a small letter for the sugar, then the base; units joined by * are phosphorothioate-linked, units joined directly phosphodiester-linked; [ ] holds rarer units or linkages, { } end groups; capitals alone tell only the bases. e = 2'-O-(2-methoxyethyl) (MOE); [5mC] = 5-methylcytosine; d = 2'-deoxy (DNA)

tested on: human Factor 7 mRNA; assay: Antisense inhibition of human Factor 7 mRNA in HepB3 cells, 50 nM antisense oligonucleotide, lipofectin; format: cell-based; details: Table 1, 50 nM, lipofectin, approximately 24 hours, relative to untreated control cells
Protocol: Antisense oligonucleotides targeted to a Factor 7 nucleic acid were tested for their effects on Factor 7 mRNA in vitro. Cultured HepB3 cells at a density of 4,000 cells per well were transfected using lipofectin reagent with 50 nM antisense oligonucleotide. After a treatment period of approximately 24 hours, RNA was isolated from the cells and Factor 7 mRNA levels were measured by real-time RT-PCR, as described herein. Factor 7 mRNA levels were adjusted according to total RNA content as measured by RIBOGREEN®. Results are presented as percent inhibition of Factor 7, relative to untreated control cells.
(§1) Antisense oligonucleotides targeted to a Factor 7 nucleic acid were designed and tested for their effects on Factor 7 mRNA in vitro. Certain antisense oligonucleotides from Table 3 were also retested for their effects on Factor 7 mRNA in vitro. Cultured HepB3 cells at a density of 4,000 cells per well were transfected using lipofectin reagent with 50 nM antisense oligonucleotide. After a treatment period of approximately 24 hours, RNA was isolated from the cells and Factor 7 mRNA levels were measured by real-time RT-PCR, as described herein. Human Factor 7 primer probe set RTS 2927 was used to measure mRNA levels. Factor 7 mRNA levels were adjusted according to total RNA content as measured by RIBOGREEN®. Results are presented as percent inhibition of Factor 7, relative to untreated control.
as §1, with “tested” for “tested for their effects on Factor 7 mRNA in vitro. Certain antisense oligonucleotides from Table 3 were also retested”
These gapmers were designed by creating gapmers shifted slightly upstream and downstream (i.e. “microwalk”) of the original gapmers from Table 7. Gapmers were also created with various motifs, e.g. 5-10-5 MOE, 3-14-3 MOE, and 2-13-5 MOE. These gapmers were tested in vitro. Cultured HepB3 cells at a density of 4,000 cells per well were transfected using lipofectin reagent with 50 nM antisense oligonucleotide. After a treatment period of approximately 24 hours, RNA was isolated from the cells and Factor 7 mRNA levels were measured by real-time RT-PCR. Factor 7 mRNA levels were adjusted according to total RNA content, as measured by RIBOGREEN®. Results are presented as percent inhibition of Factor 7, relative to untreated control cells.

Substance	% Inhibition [%]
407926 (antisense e[5mC]*e[5mC]*eA*eG*eG*dA*d[5mC]*dA*dA*d[5mC]*d[5mC]*dT*dT*dG*dG*e[5mC]*eA*e[5mC]*eT*e[5mC]) [compound 407926]	79
407933 (antisense eT*eG*eA*eT*eA*dA*dT*dG*dG*dA*dT*dA*dA*dG*dA*eA*e[5mC]*e[5mC]*eA*eG) [compound 407933]	58
407925 (antisense eG*eA*eA*eT*eA*dT*dA*dT*dG*dG*dG*dA*dT*dT*dT*eG*eG*eT*eG*e[5mC]) [compound 407925]	64
407614 (antisense eT*eG*e[5mC]*eA*eG*dT*dA*d[5mC]*dT*dG*d[5mC]*dT*d[5mC]*dA*d[5mC]*eA*eG*e[5mC]*e[5mC]*eG) [compound 407614]	78
407909 (antisense e[5mC]*e[5mC]*eA*eT*e[5mC]*d[5mC]*dG*dA*dG*dT*dA*dG*d[5mC]*d[5mC]*dG*eG*e[5mC]*eA*e[5mC]*eA) [compound 407909]	77
407607 (antisense eT*eG*eG*eA*eG*d[5mC]*dT*dG*dG*dT*d[5mC]*d[5mC]*dT*dT*dG*e[5mC]*eA*eG*eG*eA) [compound 407607]	76
407627 (antisense eG*e[5mC]*e[5mC]*e[5mC]*eA*dG*d[5mC]*dA*d[5mC]*d[5mC]*dG*d[5mC]*dG*dA*dT*e[5mC]*eA*eG*eG*eT) [compound 407627]	79
407956 (antisense eA*eA*e[5mC]*eT*eT*dG*d[5mC]*dA*dT*dT*dT*dA*dG*dT*dG*eA*eT*eG*e[5mC]*eG) [compound 407956]	19
407663 (antisense eT*eT*eG*e[5mC]*eA*dG*dG*d[5mC]*dA*dG*dG*dA*d[5mC]*dT*dG*eG*eT*eG*eG*eT) [compound 407663]	44
407938 (antisense e[5mC]*eA*e[5mC]*e[5mC]*e[5mC]*dA*dG*d[5mC]*dG*dA*dA*dG*dG*dG*dA*eG*eA*eA*eA*eT) [compound 407938]	60
407610 (antisense eA*eG*eG*eG*eA*dG*dG*d[5mC]*dA*dG*dA*dA*dG*d[5mC]*dA*eG*eA*eT*eA*eT) [compound 407610]	31
407955 (antisense eT*eG*eT*eG*eA*dA*dA*dT*dA*dT*d[5mC]*dA*dT*dT*dG*eA*e[5mC]*eA*eA*eG) [compound 407955]	3
407644 (antisense eG*eA*eG*eG*eA*d[5mC]*dA*dG*d[5mC]*dA*d[5mC]*dA*d[5mC]*dA*dT*eG*eG*eA*eG*eT) [compound 407644]	66
407608 (antisense eT*eA*eT*eA*eG*dG*dA*d[5mC]*dT*dG*dG*dA*dG*d[5mC]*dT*eG*eG*eT*e[5mC]*e[5mC]) [compound 407608]	13

same assay, conditions: Table 6, 50 nM, lipofectin, approximately 24 hours

Substance	% Inhibition [%]
422273 (antisense eT*eA*d[5mC]*dT*dG*dA*dG*d[5mC]*dG*d[5mC]*dG*dG*dA*dA*dG*eA*eA*eG*eG*eG) [compound 422273]	0
422268 (antisense eA*eG*d[5mC]*dG*d[5mC]*dG*dG*dA*dA*dG*dA*dA*dG*dG*dG*eA*e[5mC]*eG*eG*eA) [compound 422268]	63

same assay, conditions: gapmers targeted to nucleobases 4868 to 4899 of SEQ ID NO: 1, Table 8

Substance	% Inhibition of human Factor 7 mRNA levels [%]
422291 (antisense eT*eT*d[5mC]*dT*dG*d[5mC]*dA*dG*dG*dA*dG*d[5mC]*dG*dG*d[5mC]*e[5mC]*eT*eA*eA*eA) [compound 422291]	53
422300 (antisense eG*eA*dG*d[5mC]*d[5mC]*d[5mC]*dG*dA*dG*dT*dT*d[5mC]*dT*dG*d[5mC]*eA*eG*eG*eA*eG) [compound 422300]	65

same assay, conditions: lipofectin, 50 nM antisense oligonucleotide, approximately 24 hours, Factor 7 mRNA by real-time RT-PCR (RTS 2927), relative to untreated control

Substance	% Inhibition [%]
416531 (antisense eA*eG*eA*eT*eG*dA*d[5mC]*d[5mC]*dA*dG*d[5mC]*dA*dG*dG*dA*eA*eG*e[5mC]*e[5mC]*eT) [compound 416531]	19
416546 (antisense e[5mC]*e[5mC]*eA*eG*eG*d[5mC]*dT*dG*dG*dT*dT*dT*dG*dG*dA*eG*eA*eA*eA*e[5mC]) [compound 416546]	21
416458 (antisense eG*eG*e[5mC]*eG*eG*dA*dG*d[5mC]*dA*dG*d[5mC]*dG*d[5mC]*dG*dA*eT*eG*eT*e[5mC]*eG) [compound 416458]	29
416568 (antisense e[5mC]*eA*eT*eT*eG*dT*dG*d[5mC]*d[5mC]*dT*dG*dG*d[5mC]*dA*d[5mC]*eA*e[5mC]*eA*eG*eG) [compound 416568]	14
416566 (antisense eG*eT*eT*eT*eG*dT*dA*dT*dG*dG*dA*dG*dA*dG*dA*e[5mC]*e[5mC]*eA*eA*eT) [compound 416566]	0
416434 (antisense e[5mC]*eT*eG*eT*eA*dA*dG*dA*dA*dA*dT*d[5mC]*d[5mC]*dA*dG*eA*eA*e[5mC]*eA*eG) [compound 416434]	0
416460 (antisense e[5mC]*eA*e[5mC]*e[5mC]*eA*d[5mC]*dA*dT*dG*dG*dT*d[5mC]*dA*dG*dT*eG*eA*eG*eG*eA) [compound 416460]	49
416502 (antisense eG*eT*eT*e[5mC]*eT*dT*dT*dG*dA*dA*dA*dA*dA*dT*dA*eA*eT*e[5mC]*e[5mC]*e[5mC]) [compound 416502]	22
416551 (antisense e[5mC]*eA*eG*eA*eA*dA*d[5mC]*dA*d[5mC]*d[5mC]*d[5mC]*dA*dT*d[5mC]*d[5mC]*eT*e[5mC]*eT*eG*eA) [compound 416551]	19
416558 (antisense eT*eG*eA*e[5mC]*eA*dG*d[5mC]*dA*d[5mC]*dG*dA*dA*dG*d[5mC]*d[5mC]*e[5mC]*eA*eG*eA*eG) [compound 416558]	19

same assay, conditions: oligonucleotides targeted to nucleobases 11830 to 11869 of SEQ ID NO: 1 (Table 9)

Substance	% Inhibition (human Factor 7 mRNA levels) [%]
422091 (antisense eT*eG*eG*eT*e[5mC]*dA*dG*dG*dG*d[5mC]*dT*dG*dG*dT*dT*eT*eT*eG*eG*eA) [compound 422091]	42
422233 (antisense eG*eG*dT*d[5mC]*dA*dG*dG*dG*d[5mC]*dT*dG*dG*dT*dT*dT*eT*eG*eG*eA*eG) [compound 422233]	46
422166 (antisense eA*eG*eG*dA*dG*dA*d[5mC]*dA*dA*dT*dG*dG*dT*d[5mC]*dA*dG*dG*eG*e[5mC]*eT) [compound 422166]	63
422232 (antisense eG*eT*d[5mC]*dA*dG*dG*dG*d[5mC]*dT*dG*dG*dT*dT*dT*dT*eG*eG*eA*eG*eG) [compound 422232]	41
422243 (antisense eA*eG*dG*dA*dG*dA*d[5mC]*dA*dA*dT*dG*dG*dT*d[5mC]*dA*eG*eG*eG*e[5mC]*eT) [compound 422243]	62

same assay, conditions: oligonucleotides targeted to nucleobases 13760 to 13789 of SEQ ID NO: 1 (Table 10)

Substance	% Inhibition (human Factor 7 mRNA levels) [%]
422185 (antisense e[5mC]*eT*eG*d[5mC]*dG*d[5mC]*d[5mC]*dA*d[5mC]*d[5mC]*d[5mC]*dG*d[5mC]*d[5mC]*dG*dG*d[5mC]*eT*e[5mC]*eT) [compound 422185]	48
422114 (antisense e[5mC]*eG*e[5mC]*e[5mC]*eA*d[5mC]*d[5mC]*d[5mC]*dG*d[5mC]*d[5mC]*dG*dG*d[5mC]*dT*e[5mC]*eT*eG*e[5mC]*eT) [compound 422114]	50

same assay, conditions: oligonucleotides targeted to nucleobases 14707 to 14732 of SEQ ID NO: 1 (Table 11)

Substance	% Inhibition (human Factor 7 mRNA levels) [%]
422205 (antisense eA*eG*e[5mC]*dA*dG*d[5mC]*d[5mC]*dT*dG*dA*dG*dG*d[5mC]*d[5mC]*dA*dG*d[5mC]*eA*eG*eA) [compound 422205]	63
